Reference: patent US20250353820A1, “ANTIVIRAL PYRAZOLOPYRIDINONE COMPOUNDS” (Novartis AG, priority 2019, published 2025)

What follows are compounds tested against human HSV DNA polymerase UL30 (Human herpesvirus 1 (strain 17) (HHV-1) (Human herpes simplex virus 1), UniProt P04293) (assay: biochemical). Details: 625 pM HSV polymerase, 20 minutes at room temperature; read-out: HSV-polymerase Biochemical IC50.

Q: For `N#Cc1ccc(CNC(=O)c2nn(CCCO)c3c2CCN(CC2(S(=O)(=O)C4CC4)CC2)C3=O)cc1` [Example 236, N-(4-Cyanobenzyl)-6-((1-(cyclopropylsulfonyl)cyclopropyl)methyl)-1-(3-hydroxypropyl)-7-oxo-4,5,6,7-tetrahydro-1H-pyrazolo[3,4-c]pyridine-3-carboxamide], which IC50 is on record?
A: 0.091 µM

Q: Which IC50 does the source give for `Cn1nc(C(=O)NCc2ccc(C#N)cc2)c2c1C(=O)N(CC1(S(=O)(=O)C3(COCCN)CC3)CC1)CC2` [Example 96, 6-((1-((1-((2-aminoethoxy)methyl)cyclopropyl)sulfonyl)cyclopropyl)methyl)-N-(4-cyanobenzyl)-1-methyl-7-oxo-4,5,6,7-tetrahydro-1H-pyrazolo[3,4-c]pyridine-3-carboxamide] here?
A: 0.02 µM

Q: For `Cn1nc(C(=O)NCc2ccc(C#N)cc2)c2c1C(=O)N(CC1(S(=O)(=O)Nc3ccccn3)CC1)CC2` [Example 155, N-(4-Cyanobenzyl)-1-methyl-7-oxo-6-((1-(N-(pyridin-2-yl)sulfamoyl)cyclopropyl)methyl)-4,5,6,7-tetrahydro-1H-pyrazolo[3,4-c]pyridine-3-carboxamide], which IC50 is on record?
A: 0.078 µM

Q: For `Cn1nc(C(=O)NCc2ccc(Cl)cc2)c2c1C(=O)N(CC1(S(=O)(=O)C(C)(C)CO)CC1)CC2` [Example 50, N-(4-Chlorobenzyl)-6-((1-((1-hydroxy-2-methylpropan-2-yl)sulfonyl)cyclopropyl)methyl)-1-methyl-7-oxo-4,5,6,7-tetrahydro-1H-pyrazolo[3,4-c]pyridine-3-carboxamide], which IC50 is on record?
A: 0.016 µM

Q: How did the IC50 turn out when `Cn1nc(C(=O)NCc2ccc(C#N)cc2)c2c1C(=O)N(CC1(S(=O)(=O)C(C)(C)COC(F)F)CC1)CC2` [Example 58, N-(4-Cyanobenzyl)-6-((1-((1-(difluoromethoxy)-2-methylpropan-2-yl)sulfonyl)cyclopropyl)methyl)-1-methyl-7-oxo-4,5,6,7-tetrahydro-1H-pyrazolo[3,4-c]pyridine-3-carboxamide] was run?
A: 0.024 µM

Q: How did the IC50 turn out when `N#Cc1ccc(CNC(=O)c2nn(CCO)c3c2CCN(CC2(S(=O)(=O)C4CC4)CC2)C3=O)cc1` [Example 216, N-(4-Cyanobenzyl)-6-((1-(cyclopropylsulfonyl)cyclopropyl)methyl)-1-(2-hydroxyethyl)-7-oxo-4,5,6,7-tetrahydro-1H-pyrazolo[3,4-c]pyridine-3-carboxamide] was run?
A: 0.069 µM

Q: How did the IC50 turn out when `CS(=O)(=O)C1(CN2CCc3c(nn4c3C(=O)N(Cc3ccc(C#N)cc3)CC4)C2=O)CC1` [Example 46, 4-((8-((1-(Methylsulfonyl)cyclopropyl)methyl)-1,7-dioxo-3,4,7,8,9,10-hexahydropyrido[3′,4′: 3,4]pyrazolo[1,5-a]pyrazin-2 (1H)-yl)methyl)benzonitrile] was run?
A: 1.78 µM

Q: `CC(C)(O)Cn1nc(C(=O)NCc2ccc(Cl)cc2)c2c1C(=O)N(CC1(S(=O)(=O)C3CC3)CC1)CC2` [Example 229, N-(4-Chlorobenzyl)-6-((1-(cyclopropylsulfonyl)cyclopropyl)methyl)-1-(2-hydroxy-2-methylpropyl)-7-oxo-4,5,6,7-tetrahydro-1H-pyrazolo[3,4-c]pyridine-3-carboxamide] was tested. Which IC50 did it give?
A: 0.031 µM

Q: For `Cn1nc(C(=O)NCc2ccc(C#N)cc2)c2c1C(=O)N(CC1(S(C)(=O)=O)CC1)CC2` [Example 21, N-(4-Cyanobenzyl)-1-methyl-6-((1-(methylsulfonyl)cyclopropyl)methyl)-7-oxo-4,5,6,7-tetrahydro-1H-pyrazolo[3,4-c]pyridine-3-carboxamide], which IC50 is on record?
A: 0.517 µM

Q: With `Cn1nc(C(=O)NCc2ccc(F)cc2)c2c1C(=O)N(CC1(S(=O)(=O)C(C)(C)CO)CC1)CC2` [Example 53, N-(4-Fluorobenzyl)-6-((1-((1-hydroxy-2-methylpropan-2-yl)sulfonyl)cyclopropyl)methyl)-1-methyl-7-oxo-4,5,6,7-tetrahydro-1H-pyrazolo[3,4-c]pyridine-3-carboxamide] as the compound, how does the IC50 read?
A: 0.07 µM

Q: `Cn1nc(C(=O)NCc2ccc(C#N)cc2)c2c1C(=O)N(CC1(S(=O)(=O)C3(C(O)CN)CC3)CC1)CC2` (stereo not shown) [Example 208] was tested. Which IC50 did it give?
A: 0.022 µM

Q: Which IC50 does the source give for `CN(C)/C=N/S(=O)(=O)C1(CN2CCc3c(C(=O)NCc4ccc(Cl)cc4)nn(C)c3C2=O)CC1` [Example 122, (E)-N-(4-Chlorobenzyl)-6-((1-(N-((dimethylamino)methylene)sulfamoyl)cyclopropyl)methyl)-1-methyl-7-oxo-4,5,6,7-tetrahydro-1H-pyrazolo[3,4-c]pyridine-3-carboxamide] here?
A: 0.324 µM

Q: Which IC50 does the source give for `Cn1nc(C(=O)NCc2ccc(C#N)cc2)c2c1C(=O)N(CC1(S(=O)(=O)C(C)(C)CN3CC4(COC4)C3)CC1)CC2` [Example 67, N-(4-Cyanobenzyl)-1-methyl-6-((1-((2-methyl-1-(2-oxa-6-azaspiro[3.3]heptan-6-yl)propan-2-yl)sulfonyl)cyclopropyl)methyl)-7-oxo-4,5,6,7-tetrahydro-1H-pyrazolo[3,4-c]pyridine-3-carboxamide] here?
A: 0.048 µM

Q: For `Cn1nc(C(=O)NCc2ccc(C#N)cc2)c2c1C(=O)N(CC1(S(=O)(=O)C(C)(C)[C@H](N)CO)CC1)CC2` [Example 213, (R)-6-((1-((3-amino-4-hydroxy-2-methylbutan-2-yl)sulfonyl)cyclopropyl)methyl)-N-(4-cyanobenzyl)-1-methyl-7-oxo-4,5,6,7-tetrahydro-1H-pyrazolo[3,4-c]pyridine-3-carboxamide], which IC50 is on record?
A: 0.048 µM

Q: With `CC(C)(O)Cn1nc(C(=O)NCc2ccc(Cl)cc2)c2c1C(=O)N(CC1(S(C)(=O)=O)CC1)CC2` [Example 231] as the compound, how does the IC50 read?
A: 0.278 µM

Q: Which IC50 does the source give for `Cn1nc(C(=O)NCc2ccc(C#N)cc2)c2c1C(=O)N(CC1(S(=O)(=O)C3(CO)COC3)CC1)CC2` [Example 173, N-(4-Cyanobenzyl)-6-((1-((3-(hydroxymethyl)oxetan-3-yl)sulfonyl)cyclopropyl)methyl)-1-methyl-7-oxo-4,5,6,7-tetrahydro-1H-pyrazolo[3,4-c]pyridine-3-carboxamide] here?
A: 0.062 µM

Q: With `Cn1nc(C(=O)NCc2ccc(C#N)cn2)c2c1C(=O)N(CC1(S(=O)(=O)C3CC3)CC1)CC2` [Example 14, N-((5-Cyanopyridin-2-yl)methyl)-6-((1-(cyclopropylsulfonyl)cyclopropyl)methyl)-1-methyl-7-oxo-4,5,6,7-tetrahydro-1H-pyrazolo[3,4-c]pyridine-3-carboxamide] as the compound, how does the IC50 read?
A: 1.61 µM

Q: For `Cn1nc(C(=O)NCc2ccc(C#N)cc2)c2c1C(=O)N(CC1(S(=O)(=O)C(C)(C)COC3CNC3)CC1)CC2` [Example 102, 6-((1-((1-(Azetidin-3-yloxy)-2-methylpropan-2-yl)sulfonyl)cyclopropyl)methyl)-N-(4-cyanobenzyl)-1-methyl-7-oxo-4,5,6,7-tetrahydro-1H-pyrazolo[3,4-c]pyridine-3-carboxamide], which IC50 is on record?
A: 0.042 µM

Q: With `Cn1nc(C(=O)NCc2ccc(Cl)cc2)c2c1C(=O)N(CC1(S(=O)(=O)C3(C(O)CN)CC3)CC1)CC2` (stereo not shown) [Example 209] as the compound, how does the IC50 read?
A: 0.016 µM

Q: Which IC50 does the source give for `Cn1nc(C(=O)NCc2ccc(Cl)cc2)c2c1C(=O)N(CC1(S(=O)(=O)C(C)(C)COCCO)CC1)CC2` [Example 88, N-(4-Chlorobenzyl)-6-((1-((1-(2-hydroxyethoxy)-2-methylpropan-2-yl)sulfonyl)cyclopropyl)methyl)-1-methyl-7-oxo-4,5,6,7-tetrahydro-1H-pyrazolo[3,4-c]pyridine-3-carboxamide] here?
A: 0.039 µM

Q: How did the IC50 turn out when `C[C@H](NC(=O)c1nn(C)c2c1CCN(CC1(S(=O)(=O)C(C)(C)CO)CC1)C2=O)c1ccc(C#N)cc1` [Example 54, (S)-N-(1-(4-Cyanophenyl)ethyl)-6-((1-((1-hydroxy-2-methylpropan-2-yl)sulfonyl)cyclopropyl)methyl)-1-methyl-7-oxo-4,5,6,7-tetrahydro-1H-pyrazolo[3,4-c]pyridine-3-carboxamide] was run?
A: 0.103 µM

Q: For `CCS(=O)(=O)C1(CN2CCc3c(C(=O)NCc4ccc(C#N)cc4)nn(C)c3C2=O)CC1` [Example 20, N-(4-Cyanobenzyl)-6-((1-(ethylsulfonyl)cyclopropyl)methyl)-1-methyl-7-oxo-4,5,6,7-tetrahydro-1H-pyrazolo[3,4-c]pyridine-3-carboxamide], which IC50 is on record?
A: 0.259 µM

Q: Which IC50 does the source give for `Cn1nc(C(=O)NCc2ccc(C#N)cc2F)c2c1C(=O)N(CC1(S(=O)(=O)C3CC3)CC1)CC2` [Example 13, N-(4-Cyano-2-fluorobenzyl)-6-((1-(cyclopropylsulfonyl)cyclopropyl)methyl)-1-methyl-7-oxo-4,5,6,7-tetrahydro-1H-pyrazolo[3,4-c]pyridine-3-carboxamide] here?
A: 0.311 µM

Q: Which IC50 does the source give for `Cn1nc(C(=O)N[C@@H](CO)c2ccc(Cl)cc2)c2c1C(=O)N(CC1(S(=O)(=O)C3CC3)CC1)CC2` [Example 18, (R)-N-(1-(4-Chlorophenyl)-2-hydroxyethyl)-6-((1-(cyclopropylsulfonyl)cyclopropyl)methyl)-1-methyl-7-oxo-4,5,6,7-tetrahydro-1H-pyrazolo[3,4-c]pyridine-3-carboxamide] here?
A: 1.05 µM

Q: `Cn1nc(C(=O)NCc2ccc(C#N)cc2)c2c1C(=O)N(CC1(S(=O)(=O)C(C)(C)CO)CC1)CC2` [Example 52, N-(4-Cyanobenzyl)-6-((1-((1-hydroxy-2-methylpropan-2-yl)sulfonyl)cyclopropyl)methyl)-1-methyl-7-oxo-4,5,6,7-tetrahydro-1H-pyrazolo[3,4-c]pyridine-3-carboxamide] was tested. Which IC50 did it give?
A: 0.019 µM

Q: How did the IC50 turn out when `Cn1nc(C(=O)NCc2ccc(C#N)cc2)c2c1C(=O)N(CC1(S(=O)(=O)N3CC[C@@H](O)C3)CC1)CC2` [Example 126, (R)-N-(4-Cyanobenzyl)-6-((1-((3-hydroxypyrrolidin-1-yl)sulfonyl)cyclopropyl)methyl)-1-methyl-7-oxo-4,5,6,7-tetrahydro-1H-pyrazolo[3,4-c]pyridine-3-carboxamide] was run?
A: 0.084 µM

Q: With `CC1(S(=O)(=O)C2(CN3CCc4c(C(=O)NCc5ccc(Cl)cc5)nn(CCOCCN)c4C3=O)CC2)CC1` [Example 223, 1-(2-(2-aminoethoxy)ethyl)-N-(4-chlorobenzyl)-6-((1-((1-methylcyclopropyl)sulfonyl)cyclopropyl)methyl)-7-oxo-4,5,6,7-tetrahydro-1H-pyrazolo[3,4-c]pyridine-3-carboxamide] as the compound, how does the IC50 read?
A: 0.035 µM

Q: How did the IC50 turn out when `C[C@@H](NC(=O)c1nn(C)c2c1CCN(CC1(S(=O)(=O)C3CC3)CC1)C2=O)c1ccc(C#N)cc1` [Example 17, (R)-N-(1-(4-Cyanophenyl)ethyl)-6-((1-(cyclopropylsulfonyl)cyclopropyl)methyl)-1-methyl-7-oxo-4,5,6,7-tetrahydro-1H-pyrazolo[3,4-c]pyridine-3-carboxamide] was run?
A: > 25 µM
